Patent US4990617A, “N-oxide prodrug derivatives of 3-hydroxy morphinans and partial morphinans and derivatives” (E. I. Du Pont de Nemours and Company, priority 1989, dated 1991)
Counter-ions that a name gives are not always drawn. Like-named read-outs stand apart in the source and are kept apart here.

Legend:
[1] = literature, cited from earlier work
[2] = literature, cited from earlier work; remark: listed apart in the source
[3] = Plasma naloxone concentration after oral dosing in dogs; type: in vivo; settings: dog; for concentration at 0.5 h / concentration at 1 h / concentration at 2 h / concentration at 3 h / concentration at 4 h / concentration at 6 h / concentration at 8 h: in vivo, equimolar oral doses, read-out: Average Plasma Naloxone Conc.
Procedure: (§1) Among the experiments used to evaluate the N-oxide prodrugs of the instant invention were measurements of their reduction rates in vitro by various biological media from rats, dogs, and humans, and drug bioavailability in rats and dogs administered oral doses of the prodrug. Drug concentration was determined after solvent extraction, using high pressure liquid chromatography analytical procedures.
(§2) Rats and dogs were administered the parent drug intravenously and orally, and the prodrugs were administered orally. Usually, doses were administered as aqueous solutions prepared immediately before dosing. Plasma was collected and frozen until analysis of drug concentration. The area under the plasma drug concentration versus time curve (AUC) was calculated for each animal. […]. Relative bioavailability (RB) of parent drug was determined by comparing the bioavailability from orally administered prodrug F(pro) with the bioavailability from orally administered parent drug F(drug). [formula]

[4] = background, cited from earlier work
[5] = literature, cited from earlier work; for therapeutic index: relative to corresponding tertiary amines
[6] = literature; cited from earlier work
[7] = administered to rats; literature; cited from earlier work
[8] = administered to mice; literature; cited from earlier work
[9] = administered to rabbits; literature; cited from earlier work
[10] = Oral bioavailability in rats; type: in vivo; settings: plasma; rat, oral nalbuphine; read-out: F(DRUG), nalbuphine bioavailability from orally administered parent drug
Procedure: as §1
(§3) Rats and dogs were administered the parent drug intravenously and orally, and the prodrugs were administered orally. Usually, doses were administered as aqueous solutions prepared immediately before dosing. Plasma was collected and frozen until analysis of drug concentration. The area under the plasma drug concentration versus time curve (AUC) was calculated for each animal. Bioavailability (F) was estimated by: [formula] F represents the percentage of the administered dose absorbed into plasma. Relative bioavailability (RB) of parent drug was determined by comparing the bioavailability from orally administered prodrug F(pro) with the bioavailability from orally administered parent drug F(drug). [formula]

[11] = Oral bioavailability in dogs; type: in vivo; settings: plasma, dog, read-out: oral bioavailability of nalbuphine
Procedure: as §1, §3

[12] = guinea pig liver microsomal preparation; literature; cited from earlier work
[13] = Plasma naltrexone concentration after oral dosing in dogs; type: in vivo; settings: dog, normalized for dose
Procedure: as §1, §2

[14] = rabbits administered oxycodone subcutaneously; literature; cited from earlier work
[15] = In vitro reduction of N-oxide to drug in rat plasma; type: in vitro ADME; settings: 37° C., read-out: t1/2 of conversion of nalbuphine N-oxide to nalbuphine (converted)
Procedure: as §1
(§4) Prodrug was added to fresh biological medium to a concentration of 0.28 μM, incubated at 37° C., and the rate of drug appearance was measured.

[16] = In vitro reduction of N-oxide to drug in rat liver homogenate; type: in vitro ADME; settings: in 3 minutes, rat liver homogenate (25%), 37° C., read-out: Conversion of nalbuphine N-oxide to nalbuphine
Procedure: as §1, §4

[17] = In vitro reduction of N-oxide to drug in rat intestine homogenate; type: in vitro ADME; settings: in 10 minutes, rat intestine homogenate (25%), 37° C., read-out: Conversion of nalbuphine N-oxide to nalbuphine
Procedure: as §1, §4

[18] = In vitro reduction of N-oxide to drug in dog plasma; type: in vitro ADME; settings: 37° C., read-out: t1/2 of conversion of nalbuphine N-oxide to nalbuphine (converted)
Procedure: as §1, §4

[19] = In vitro reduction of N-oxide to drug in human plasma; type: in vitro ADME; settings: 37° C., 0.28 μM
Procedure: as §1, §4

In the case of CC[N+]([O-])(CC)CC(=O)N1CCN2C(=O)c3ccccc3C12c1ccccc1 (stereo not drawn), the pharmacological properties ([1]; Swiss Patent No. 481,124) is given as “analgesic, sedative, antitussive, hypotensive, and spasmolytic properties”.
In the case of C[N+]1([O-])CCC[C@H]1c1cccnc1 (stereo partly drawn) [nicotine-1'-N-oxide], the reduction to nicotine ([2]; man, oral versus intravenous) is listed as “partially reduced to nicotine in man after oral administration, but not after intravenous administration” and the first-pass phenomenon ([2]; oral) is listed as “substantially avoids the first-pass phenomenon seen with oral nicotine”.
With C=CC[N+]1([O-])CC[C@]23c4c5ccc(O)c4O[C@H]2C(=O)CC[C@@]3(O)[C@H]1C5 (stereo partly drawn) [Naloxone N-oxide, naloxone N-oxide] the “Oral naloxone bioavailability when administered as the N-oxide, relative to naloxone” value ([3]; oral) was “improved”, the concentration at 0.5 h [3] was 947 ng/mL and the concentration at 1 h [3] was 1220 ng/mL. For the same molecule, the concentration at 2 h [3] was 797 ng/mL, the concentration at 3 h [3] was 289 ng/mL and the concentration at 4 h [3] was 107 ng/mL. It also gave a concentration at 6 h [3] of 22 ng/mL and a concentration at 8 h [3] of 6 ng/mL.
For COc1ccc2c3c1O[C@H]1C(=O)CC[C@@]4(O)[C@@H](C2)N(C)CC[C@]314 [Oxycodone], the oral potency [4] is given as “similarly good oral potency”.
Molecule C=CCN1CC[C@]23c4c5ccc(O)c4O[C@H]2C(=O)CC[C@@]3(O)[C@H]1C5 [Naloxone, (-)-17-Allyl-4,5α-epoxy-3,14-dihydroxymorphinan-6-one] has a concentration at 0.5 h [3] of 451 ng/mL, a concentration at 1 h [3] of 176 ng/mL and a concentration at 2 h [3] of 65 ng/mL. It also gave a concentration at 3 h [3] of 30 ng/mL, a concentration at 4 h [3] of 10 ng/mL and a concentration at 6 h [3] of 10 ng/mL. The concentration at 8 h [3] was 5 ng/mL.
In the case of CCC(=O)OC1(c2ccccc2)CC[N+](C)([O-])CC1 (stereo not drawn) [N-oxide of 1-methyl-4-phenyl-4-propionoxypiperidine HCl], the “duration of analgesic activity” value ([1]; relative to dolantin HCl) is given as “of longer duration”, the analgesic activity [1] is given as “analgesic activity equal to that of dolantin HCl” and the toxicity [5] is given as “Toxicity was also less”.
For C[N+]1([O-])CC[C@]23c4c5ccc(O)c4O[C@H]2[C@@H](O)C=C[C@H]3[C@H]1C5 (stereo partly drawn) [Morphine N-oxide], the antitussive activity [6] is given as “effective antitussive”, the analgesic activity [1] is given as “either less active or inactive as an analgesic” and the toxicity [5] is given as “somewhat lower toxicity than morphine”. The “reduction of N-oxide to tertiary amine” value [7] was “partially reduced to morphine”.
In the case of CCC(=O)OC1(c2ccccc2)CC[N+](C)([O-])CC1 (stereo not drawn) [N-oxide of 1-methyl-4-phenyl-4-piperidinol propionate], the “reduction of N-oxide to tertiary amine” value [8] is listed as “partially reduced to the tertiary amine”, the “reduction of N-oxide to tertiary amine” value [7] is listed as “partially reduced to the tertiary amine” and the “reduction of N-oxide to tertiary amine” value [9] is listed as “partially reduced to the tertiary amine”.
Oc1ccc2c3c1O[C@H]1[C@@H](O)CC[C@@]4(O)[C@@H](C2)N(CC2CCC2)CC[C@]314 [Nalbuphine, (-)-17-(Cyclobutylmethyl)-4,5α-epoxymorphinan-3,6α,14-triol] gave a bioavailability [10] of 2.7 ± 0.4% and a bioavailability [11] of 5.4%.
In the case of C[N+]1([O-])CC[C@]23CCCC[C@H]2[C@H]1Cc1ccc(O)cc13 (stereo partly drawn) [3-hydroxy-N-methylmorphinan N-oxide], the therapeutic index [5] is given as “higher therapeutic index than the corresponding tertiary amines”.
For 3-methyl-morphine [Codeine], the “conversion to N-oxide” value [12] is given as “converted in part to the corresponding N-oxides”, the “metabolism to N-oxide” value [7] is given as “partially metabolized to the N-oxides” and the “oral:parenteral potency ratio” value ([4]; relative to morphine) is given as “much higher oral:parenteral potency ratio than morphine”.
In the case of O=C1CC[C@@]2(O)[C@H]3Cc4ccc(O)c5c4[C@@]2(CC[N+]3([O-])CC2CC2)[C@H]1O5 (stereo partly drawn) [Naltrexone N-oxide], the “Average Plasma Naltrexone Conc.” value ([13]; 0.25 hours) is reported as 424 ng/mL, the “Average Plasma Naltrexone Conc.” value ([13]; 0.5 hours) is reported as 752 ng/mL and the “Average Plasma Naltrexone Conc.” value ([13]; 1 hour) is reported as 713 ng/mL. For the same molecule, the “Average Plasma Naltrexone Conc.” value ([13]; 1.5 hours) was 559 ng/mL, the “Average Plasma Naltrexone Conc.” value ([13]; 2 hours) was 484 ng/mL and the “Average Plasma Naltrexone Conc.” value ([13]; 3 hours) was 251 ng/mL. For the same molecule, the “Average Plasma Naltrexone Conc.” value ([13]; 4 hours) was 110 ng/mL, the “Average Plasma Naltrexone Conc.” value ([13]; 6 hours) was 24 ng/mL and the “Average Plasma Naltrexone Conc.” value ([13]; 8 hours) was 8 ng/mL.
For COc1ccc2c3c1O[C@H]1C(=O)CC[C@@]4(O)[C@@H](C2)[N+](C)([O-])CC[C@]314 (stereo partly drawn) [oxycodone N-oxide], the “form of metabolite in urine” value [14] is listed as “found only in the free, unconjugated form”.
[O-][N+]1(CC2CCC2)CC[C@]23c4c5ccc(O)c4O[C@H]2[C@@H](O)CC[C@@]3(O)[C@H]1C5 (stereo partly drawn) [Nalbuphine N-oxide] showed a half-life at 0.28 µM [15] of 6 h, a metabolised at 0.05 h, 0.28 µM [16] of 100% and a metabolised at 10 min, 0.28 µM [17] of 100%. The half-life at 0.28 µM [18] was 53.7 h and the “Rate of conversion of nalbuphine N-oxide to nalbuphine” value [19] was “negligible”.
For O=C1CC[C@@]2(O)[C@H]3Cc4ccc(O)c5c4[C@@]2(CCN3CC2CC2)[C@H]1O5 [Naltrexone, (-)-17-(Cyclopropylmethyl)-4,5α-epoxy-3,14-dihydroxymorphinan-6-one], the “Average Plasma Naltrexone Conc.” value ([13]; 0.25 hours) was 9 ng/mL, the “Average Plasma Naltrexone Conc.” value ([13]; 0.5 hours) was 9 ng/mL and the “Average Plasma Naltrexone Conc.” value ([13]; 1 hour) was 4 ng/mL. The “Average Plasma Naltrexone Conc.” value ([13]; 1.5 hours) was 4 ng/mL, the “Average Plasma Naltrexone Conc.” value ([13]; 2 hours) was 0 ng/mL and the “Average Plasma Naltrexone Conc.” value ([13]; 3 hours) was 0 ng/mL. For the same molecule, the “Average Plasma Naltrexone Conc.” value ([13]; 4 hours) was 0 ng/mL, the “Average Plasma Naltrexone Conc.” value ([13]; 6 hours) was 0 ng/mL and the “Average Plasma Naltrexone Conc.” value ([13]; 8 hours) was 0 ng/mL.
For COc1ccc2c(c1)[C@@]13CCCC[C@H]1[C@@H](C2)[N+](C)([O-])CC3 (stereo partly drawn) [3-methoxy-N-methylmorphinan N-oxide], the therapeutic index [5] is given as “higher therapeutic index than the corresponding tertiary amines”.
